Experimental data from patent US5576335A, “Urea derivatives and their use as ACAT inhibitors” (Nisshin Flour Milling Co., Ltd., priority 1994, dated 1996).

Key:
[1] = tested on: ACAT; experiment: ACAT inhibitory activity (labelled cholesteryl ester formation from [1-14C]oleoyl-CoA, liver microsome fractions); type: biochemical; conditions: compound at 10^-7 M; rabbit liver microsomes; percent inhibition of formation of labelled cholesteryl esters
Method: 1. ACAT inhibitory activity
The enzyme preparation, ACAT was prepared from liver microsome fractions of male rabbits according to the method of E. E. Largis et al. (Journal of Lipid Research, Vol. 30, pages 681-690, 1989). The activity was calculated by assaying the amount of the labelled cholesteryl esters formed from [1-^14 C]oleoyl-CoA and endogenous cholesterol according to the method of Kazuichi NATORI et al. (Japan J. Pharmacol., Vol. 42, pages 517-523, 1986).
The result is shown in Table 1, in which percent inhibition of the formation of the labelled cholesteryl esters with a compound added at 10^-7 M is indicated as index for the ACAT inhibitory activity.

[2] = tested on: Human LDL; experiment: Antioxidative activity (inhibition of MDA formation in cupric sulfate-induced peroxidation of LDL); type: biochemical; conditions: compound 10^-5 M, cupric sulfate 5×10^-6 M, 5 hrs, percent inhibition of MDA formation vs control
Method: 2. Antioxidative activity
Human LDL was incubated in the presence of cupric sulfate (5×10^-6 M) and in the presence or absence of a compound (10^-5 M) for 5 hrs. After the incubation, the peroxidation of low-density lipoproteins (LDL) is evaluated by the formation of malondialdehyde (MDA), which is a sort of lipid peroxides according to the method of Simon J. T. Mao et al. (J. Med. Chem., Vol. 34, pages 298-302, 1991). Activity of the compound is shown by percent inhibition of the MDA formation as compared with control.

Structure (SMILES)	ACAT Inhibition (%) [1] [%]	Antioxidant Activity (%) [2] [%]
CCCCCCCNC(=O)Nc1ccccc1NC(=O)c1cc(C(C)(C)C)c(O)c(C(C)(C)C)c1 [Example 6, N-[2-(3-heptylureido)phenyl]-3,5-di-t-butyl-4-hydroxybenzamide]	79	82
CCCCCCCN(C)C(=O)Nc1cc(Cl)c(Cl)cc1NC(=O)c1cc(C(C)(C)C)c(O)c(C(C)(C)C)c1 [Example 35, N-[4,5-dichloro-2-(3-heptyl-3-methylureido)phenyl]-3,5-di-t-butyl-4-hydroxybenzamide]	71	–
CC(C)(C)c1cc(C(=O)Nc2ccccc2NC(=O)N(Cc2ccccc2)Cc2ccccc2)cc(C(C)(C)C)c1O [Example 8, N-[2-(3,3-dibenzylureido)phenyl]-3,5-di-t-butyl-4-hydroxybenzamide]	85	83
CCCCCCCNC(=O)Nc1ccc(F)cc1NC(=O)c1cc(C(C)(C)C)c(O)c(C(C)(C)C)c1 [Example 30, N-[5-fluoro-2-(3-heptylureido)phenyl]-3,5-di-t-butyl-4-hydroxybenzamide]	78	79
COc1ccc(NC(=O)N(Cc2ccccc2)Cc2ccccc2)c(NC(=O)c2cc(C(C)(C)C)c(O)c(C(C)(C)C)c2)c1 [Example 20, N-[2-(3,3-dibenzylureido)-5-methoxyphenyl]-3,5-di-t-butyl-4-hydroxybenzamide]	99	–
CCCCCCCNC(=O)Nc1ccccc1NCc1cc(C(C)(C)C)c(O)c(C(C)(C)C)c1 [Example 14]	81	96
CCCCCCCN(C)C(=O)Nc1ccc(OC)cc1NC(=O)c1cc(C(C)(C)C)c(O)c(C(C)(C)C)c1 [Example 21, N-[2-(3-heptyl-3-methylureido)-5-methoxyphenyl]-3,5-di-t-butyl-4-hydroxybenzamide]	93	–
CC(C)(C)c1cc(C(=O)Nc2ccccc2NC(=O)NCC(c2ccccc2)c2ccccc2)cc(C(C)(C)C)c1O [Example 7, N-[2-(3-(2,2-diphenylethyl)ureido]phenyl]-3,5-di-t-butyl-4-hydroxybenzamide]	86	75
CC(C)(C)c1cc(C(=O)Nc2ccccc2NC(=O)NC23CC4CC(CC(C4)C2)C3)cc(C(C)(C)C)c1O [Example 11, N-[2-(3-adamantyl)ureido]phenyl-3,5-di-t-butyl-4-hydroxybenzamide]	73	–
CC(C)(C)c1cc(C(=O)Nc2ccccc2NC(=O)N(Cc2ccccc2)Cc2ccccn2)cc(C(C)(C)C)c1O [Example 12, N-[2-[3-benzyl-3-(2-pyridylmethyl)ureido]phenyl]-3,5-di-t-butyl-4-hydroxybenzamide]	79	–
CCCCCCCN(C)C(=O)Nc1ccccc1NC(=O)c1cc(C(C)(C)C)c(O)c(C(C)(C)C)c1 [Example 13, N-[2-(3-heptyl-3-methyl)ureido]phenyl-3,5-di-t-butyl-4-hydroxybenzamide]	88	–
CCCCCCCN(C)C(=O)Nc1ccc(F)cc1NC(=O)c1cc(C(C)(C)C)c(O)c(C(C)(C)C)c1 [Example 32, N-[5-fluoro-2-(3-heptyl-3-methylureido)phenyl]-3,5-di-t-butyl-4-hydroxybenzamide]	95	–
CCCCCCCNC(=O)Nc1cc(OC)ccc1NC(=O)c1cc(C(C)(C)C)c(O)c(C(C)(C)C)c1 [Example 36, N-[2-(3-heptylureido)-4-methoxyphenyl]-3,5-di-t-butyl-4-hydroxybenzamide]	77	92
